For orientation: EC50 means the concentration that produces a half-maximal response.

The structures appear in SMILES notation. Like-named read-outs stand apart in the source and are kept apart here.

The source of these data is US20250099407A1, “2-AMINO BENZOPHENONE DERIVATIVES FOR TARGETED FERROPTOSIS INDUCTION IN CANCER THERAPY” (INDIAN INSTITUTE OF TECHNOLOGY KANPUR, priority 2023, published 2025).

For test [1], the system named is Huh-7 cells. As to the kind of experiment: Cell viability, luminescence-based CellTiter-Glo assay, Huh-7 cells. The method, boiled down: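 ATP-based CellTiter-Glo luminescence in Huh-7 cells in DMEM, with DMSO (>0.1%) as control. Single-point screens used 10 μM compound with or without Fer-1 (10 μM); dose responses used 8-point 3-fold dilutions from 100/10 μM to 45/4.5 nM. More than two biological replicates with three technical replicates each.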

The subject of test [2] is U2OS. The experiment in a line: Cell viability, CellTiter-Glo assay, U2OS. In kind it is cell-based. On the procedure:
(§1) The viability of screened cancer cells was recorded using a luminescence-based CellTiter-Glo® assay for the ATP quantification. The screening concentration of the molecule ranged from 100/10 μM to 45/4.5 nM with an 8-point-3-fold dilution series in DMEM media (>0.1% DMSO as control). Each experiment was conducted in more than two biological replicates with three technical replicates. The error bar is a representation of standard deviation among the technical replicates.
(§2) The viability of screened cancer cells was recorded using a luminescence-based CellTiter-Glo® assay for the ATP quantification. The screening concentration of IITK3002 ranged from 10 μM to 4.5 nM with an 8-point-3-fold dilution series in DMEM media (>0.1% DMSO as control). Each experiment was conducted in more than two biological replicates with three technical replicates. The error bar is a representation of standard deviation among the technical replicates.
(§3) a. […] In parallel, we have also synthesized the bromoacetamide (IITK3002) version of the lead molecules which is slightly more reactive with thiol nucleophiles when compared to chlorooacetamide warheads as depicted in FIG. 13. […] In addition, we also evaluated the molecules' antiproliferative potency against a panel of twelve different cancer phenotypes. The set of cancer cell lines included liver, breast, colon, myeloma, bone, blood, skin, brain and prostate lineages (FIG. 2, 3, Table 1).
On the technique in general: In ATP-based viability assays light output follows the ATP content of the culture.

In test [3] the test system is PC3. As to the kind of experiment: Cell viability, CellTiter-Glo assay, PC3. In kind it is cell-based. On the procedure: as §1, §2, §3
The test system of test [4] is 22Rv1. The experiment in a line: Cell viability, CellTiter-Glo assay, 22Rv1. In kind it is cell-based. How it is done: as §1, §2, §3
The subject of test [5] is A549. As to the kind of experiment: Cell viability, A549. The conditions noted are these: Homo sapiens. Type of test: cell-based.
Where [6] appears, read: Homo sapiens, Huh-7, Huh-7 cells, antiproliferative activity, read-out: EC50 in Huh-7 cells.
Where [7] appears, read: Homo sapiens, Huh-7, Huh-7 cells, cell viability, read-out: EC50 Huh-7.
Setting [8] is: Homo sapiens, PC-3, PC3, cell viability.
Where [9] appears, read: Homo sapiens, 22Rv1, 22Rv1, cell viability.
The mark [10] stands for this setting: Huh-7 cells, cell viability, read-out: EC50 Huh-7.

As for `C#CCN(C(=O)CCl)c1ccccc1C(=O)c1ccccc1` [IITK3003, N-(2-benzoylphenyl)-2-chloro-N-(prop-2-yn-1-yl)acetamide], the EC50 in test [1] (setting [6]) came out at 44 nM; in test [1] (setting [7]), 43.6 nM; in test [1] (Huh-7 cells, antiproliferative activity, read-out: EC50 in Huh-7 cells) it was 60 nM; in test [2] (Homo sapiens), 1290 nM; in test [3] (setting [8]) it was 1110 nM; in test [4] (setting [9]), 420 nM. The EC50 in test [5] is 700 nM.

With `CN(C(=O)CCl)c1ccccc1C(=O)c1ccccc1` [IITK3001, N-(2-benzoylphenyl)-2-chloro-N-methylacetamide], the “screening of electrophilic small molecules, viability of Huh-7 cells” value in test [1] (10 μM with or without Fer-1 (10 μM)) was “potent inhibitors of Huh-7 cells”. The EC50 was 233 nM in test [1] (setting [7]); 233 nM in test [1] (setting [10]); 350 nM in test [2]; 355 nM in test [2] (Homo sapiens); 348 nM in test [3] (setting [8]); 350 nM in test [3] (PC3, cell viability). The EC50 in test [4] (22Rv1, cell viability) turned out to be 150 nM; in test [4] (setting [9]), 148 nM; in test [5], 610 nM.

For the compound `CN(C(=O)CBr)c1ccccc1C(=O)c1ccccc1` [IITK3002, N-(2-benzoylphenyl)-2-bromo-N-methylacetamide], the EC50 was 30 nM in test [1] (setting [6]); 32 nM in test [1] (setting [7]); 32 nM in test [1] (setting [10]); 130 nM in test [2]; 133 nM in test [2] (Homo sapiens); 193 nM in test [3] (setting [8]). Moreover, the EC50 stood at 190 nM in test [3] (PC3, cell viability); 40 nM in test [4] (setting [9]); 30 nM in test [5].
